{"source": "paper PMC6473744", "about": "“Antiproliferative Activity of (-)-Rabdosiin Isolated from Ocimum sanctum L” (Medicines, 2019)", "key": {"MCF-7 [1]": {"tested_on": "MCF-7", "assay": "MTT reduction assay, cytotoxicity", "type": "cell-based, human", "conditions": "for IC50: Homo sapiens, MCF7", "procedure": "Compounds were prepared at a stock solution of 10.0 mg/mL in DMSO and the extract at 20.0 mg/mL in DMSO. […] Cytotoxicity was evaluated by the MTT reduction assay, which determines the effect of treatment with an exogenously added agent on the viability of the cell population. […] Further, cells were incubated with the compounds for 72 h at 37 °C in a 5% CO2 incubator. The MTT reagent (Sigma-Aldrich, Darmstadt, Germany; 1 mg/mL in phosphate buffered saline (PBS); 100 μL/well) was added during the last 4 h of incubation. The formazan crystals formed were dissolved by adding 0.1 M HCl in 2-propanol (100 μL/well) and absorption was measured using an ELISA reader (Denley WeScan, Finland) at 545 nm with reference filter set at 690 nm. All cultures were set in triplicate, whereas cells incubated in complete medium or in medium containing the equivalent amount of DMSO, as well as cells incubated in the presence of doxorubicin (Sigma-Aldrich) were used as negative and positive controls, respectively.\nAll experiments were performed at least three times."}, "HCT-116 [2]": {"tested_on": "HCT-116", "assay": "MTT reduction assay, cytotoxicity", "type": "cell-based", "conditions": "Homo sapiens", "procedure": "(§1) The cytotoxic activity of the compounds, as well as of the initial methanol extract, were tested against three human cancer cell lines: MCF-7 (breast; estrogen receptor positive (ER+), progesterone receptor (PR)+, and HER2 negative (-)), SKBR3 (breast; ER-, PR-, and HER2+), and HCT-116 (colon). All cell lines were maintained in RPMI-1640, supplemented with 10% heat-inactivated fetal bovine serum (FBS), 10 mM Hepes, 10 U/mL penicillin, 10 U/mL streptomycin, and […] (all from Lonza, Cologne, Germany) (thereafter referred to as complete medium) at 37 °C in a humidified 5% CO2 incubator.\n(§2) Compounds were prepared at a stock solution of 10.0 mg/mL in DMSO and the extract at 20.0 mg/mL in DMSO. Prior to their use, they were diluted in plain RPMI-1640. Cytotoxicity was evaluated by the MTT reduction assay, which determines the effect of treatment with an exogenously added agent on the viability of the cell population. Briefly, cells were plated in 96-well plates (Greiner Bio-One GmbH, Frickenhausen, Germany; 5 × 10^3 cells/well) and incubated at 5% CO2 and 95% air at 37 °C for 24 h, in order to adhere. Further, cells were incubated with the compounds for 72 h at 37 °C in a 5% CO2 incubator. The MTT reagent (Sigma-Aldrich, Darmstadt, Germany; 1 mg/mL in phosphate buffered saline (PBS); 100 μL/well) was added during the last 4 h of incubation. The formazan crystals formed were dissolved by adding 0.1 M HCl in 2-propanol (100 μL/well) and absorption was measured using an ELISA reader (Denley WeScan, Finland) at 545 nm with reference filter set at 690 nm. All cultures were set in triplicate, whereas cells incubated in complete medium or in medium containing the equivalent amount of DMSO, as well as cells incubated in the presence of doxorubicin (Sigma-Aldrich) were used as negative and positive controls, respectively. The half maximal inhibitory concentration (IC50) was calculated according to the formula: 100(A0 − A)/A0 = 50, where A and A0 are optical densities of wells exposed to the compounds and control wells, respectively.\n(§3) The compounds were tested at a concentration range of 200.0 to 6.25 μg/mL and the extract at 750.0 to 1.25 μg/mL. […] All experiments were performed at least three times."}, "SKBR3 [3]": {"tested_on": "SKBR3", "assay": "MTT reduction assay, cytotoxicity", "type": "cell-based", "conditions": "Homo sapiens, SK-BR-3", "procedure": "as §1, §2, §3"}, "[4]": {"tested_on": "MCF-7, SKBR3, and HCT-116", "assay": "MTT reduction assay, stated for all cell lines together", "type": "cell-based", "conditions": "Homo sapiens; all cell lines tested, positive control", "procedure": "as §1\nCompounds were prepared at a stock solution of 10.0 mg/mL in DMSO and the extract at 20.0 mg/mL in DMSO. Prior to their use, they were diluted in plain RPMI-1640. Cytotoxicity was evaluated by the MTT reduction assay, which determines the effect of treatment with an exogenously added agent on the viability of the cell population. […] The formazan crystals formed were dissolved by adding 0.1 M HCl in 2-propanol (100 μL/well) and absorption was measured using an ELISA reader (Denley WeScan, Finland) at 545 nm with reference filter set at 690 nm. […] The half maximal inhibitory concentration (IC50) was calculated according to the formula: 100(A0 − A)/A0 = 50, where A and A0 are optical densities of wells exposed to the compounds and control wells, respectively. […]"}, "HCT-116 [5]": {"tested_on": "HCT-116", "assay": "Annexin V/PI flow cytometry analysis", "type": "cell-based, human", "conditions": "HCT-116, 80 μg/mL, 72 h", "procedure": "(§4) MCF-7, SKBR3 and HCT-116 cells were incubated with compound 6 and analyzed with flow cytometry following staining with annexin V and propidium iodide (PI). […] Cells were detached with 2 mM EDTA in Dulbecco’s PBS (DPBS), harvested, centrifuged in cold PBS (1500 rpm; 5 min), and stained with the Annexin V-FITC Apoptosis Detection Kit (BioLegend, Fell, Germany; cat# 640914), according to the manufacturers’ instructions. In brief, cells were resuspended in binding buffer, then annexin V-FITC (5 μL) and PI (10 μL; 0.03 μg/sample) were added, mixed, and incubated with the cells for 15 min in the dark at room temperature. The volume was adjusted to 500 μL with binding buffer and the cell suspension was immediately analyzed in a FACSCanto II (BD Biosciences, San Diego, CA, USA) using FACSDiva software (V7, BD Biosciences)."}, "MCF-7 [6]": {"tested_on": "MCF-7", "assay": "Annexin V/PI flow cytometry analysis", "type": "cell-based, human", "conditions": "MCF-7, 80 μg/mL, 72 h", "procedure": "as §4"}, "SKBR3 [7]": {"tested_on": "SKBR3", "assay": "Annexin V/PI flow cytometry analysis", "type": "cell-based, human", "conditions": "SKBR3, 80 μg/mL, 72 h", "procedure": "as §4"}, "[8]": {"tested_on": "human peripheral blood mononuclear cells (PBMCs)", "assay": "Cytotoxic effect against PBMCs, annexin V/PI flow cytometry", "type": "cell-based", "conditions": "24 h", "procedure": "as §4\nCompound 6 was additionally assessed for its cytotoxicity against human peripheral blood mononuclear cells (PBMCs) isolated from healthy blood donors’ peripheral blood as previously described. Prior to blood draw, individuals gave their informed consent according to the regulations approved by the 2nd Peripheral Blood Transfusion Unit and Hemophiliac Centre, “Laikon” General Hospital Institutional Review Board, Athens, Greece. PBMCs were seeded in 24-well plates (5 × 10^5/mL; 2 mL/well) and exposed to 2 concentrations of compound 6: 80 μg/mL and 40 μg/mL. PBMCs were collected, stained as described in 2.5 and analyzed by flow cytometry."}, "[9]": {"tested_on": "MCF-7, SKBR3, and HCT-116 cells", "assay": "Annexin V/PI flow cytometry, stated for all cell lines together", "type": "cell-based, human", "conditions": "72 h", "procedure": "as §4"}, "[10]": {"conditions": "MCF-7, 72 h exposure, mean ± SD of three experiments"}, "[11]": {"conditions": "40 μg/mL, range over the cell lines"}}}
{"molecule": "COc1cccc2c1C(=O)c1c(O)c3c(c(O)c1C2=O)C[C@@](O)(C(=O)CO)C[C@@H]3O[C@H]1C[C@H](N)[C@H](O)[C@H](C)O1", "note": "[Doxorubicin, reference compound]", "values": [{"measurement": "IC50", "setting": "MCF-7 [1]; MCF-7, positive control", "result": "0.092 ± 0.007", "unit": "µM"}, {"measurement": "IC50", "setting": "HCT-116 [2]; HCT-116, positive control", "result": "0.192 ± 0.029", "unit": "µM"}, {"measurement": "IC50", "setting": "SKBR3 [3]; SKBR3, positive control", "result": "0.095 ± 0.008", "unit": "µM"}, {"measurement": "IC50", "setting": "[4]", "result": "≤ 0.2", "unit": "µM"}]}
{"molecule": "O=C(O[C@H](Cc1ccc(O)c(O)c1)C(=O)O)C1=Cc2cc(O)c(O)cc2[C@@H](c2ccc(O)c(O)c2)[C@@H]1C(=O)O[C@H](Cc1ccc(O)c(O)c1)C(=O)O", "note": "[Compound 6, (-)-rabdosiin]", "values": [{"measurement": "IC50", "setting": "MCF-7 [1]; [10]", "result": "75 ± 2.12", "unit": "µg/mL"}, {"measurement": "IC50", "setting": "HCT-116 [2]; HCT-116, 72 h exposure, mean ± SD of three experiments", "result": "84 ± 7.78", "unit": "µg/mL"}, {"measurement": "IC50", "setting": "SKBR3 [3]; SKBR3, 72 h exposure, mean ± SD of three experiments", "result": "83 ± 3.54", "unit": "µg/mL"}, {"measurement": "early apoptotic cells (annexin V+)", "setting": "HCT-116 [5]", "result": 43.1, "unit": "%"}, {"measurement": "late apoptotic/necrotic cells (annexin V+/PI+)", "setting": "HCT-116 [5]", "result": 10.2, "unit": "%"}, {"measurement": "early apoptotic cells (annexin V+)", "setting": "MCF-7 [6]", "result": 44.9, "unit": "%"}, {"measurement": "late apoptotic/necrotic cells (annexin V+/PI+)", "setting": "MCF-7 [6]", "result": 12.3, "unit": "%"}, {"measurement": "early apoptotic cells (annexin V+)", "setting": "SKBR3 [7]", "result": 40.1, "unit": "%"}, {"measurement": "late apoptotic/necrotic cells (annexin V+/PI+)", "setting": "SKBR3 [7]", "result": 9.1, "unit": "%"}, {"measurement": "early apoptotic PBMCs", "setting": "[8]; donor 1, 40 μg/mL", "result": 1.8, "unit": "%"}, {"measurement": "late apoptotic/necrotic PBMCs", "setting": "[8]; donor 1, 40 μg/mL", "result": 1.7, "unit": "%"}, {"measurement": "early apoptotic PBMCs", "setting": "[8]; donor 1, 80 μg/mL", "result": 2.8, "unit": "%"}, {"measurement": "late apoptotic/necrotic PBMCs", "setting": "[8]; donor 1, 80 μg/mL", "result": 3.0, "unit": "%"}, {"measurement": "early apoptotic PBMCs", "setting": "[8]; donor 2, 40 μg/mL", "result": 2.1, "unit": "%"}, {"measurement": "late apoptotic/necrotic PBMCs", "setting": "[8]; donor 2, 40 μg/mL", "result": 1.9, "unit": "%"}, {"measurement": "early apoptotic PBMCs", "setting": "[8]; donor 2, 80 μg/mL", "result": 4.3, "unit": "%"}, {"measurement": "late apoptotic/necrotic PBMCs", "setting": "[8]; donor 2, 80 μg/mL", "result": 3.1, "unit": "%"}, {"measurement": "early apoptotic cells", "setting": "[9]; [11]", "result": "13.5–20.1%"}, {"measurement": "late apoptotic/necrotic cells", "setting": "[9]; [11]", "result": "3.9–6.5%"}, {"measurement": "cells driven to apoptosis", "setting": "[9]; 80 μg/mL, all cell lines", "result": "ca. 50%"}]}
{"molecule": "O=C(O)[C@H]1O[C@@H](Oc2cc(O)c3c(=O)cc(-c4ccc(O)c(O)c4)oc3c2)[C@H](O)[C@@H](O)[C@@H]1O", "note": "[Compound 9, luteolin 7-O-β-D-glucuronide]", "values": [{"measurement": "IC50 ± SD", "setting": "MCF-7 [1]; [10]", "result": "141 ± 1.41", "unit": "µg/mL"}]}
{"molecule": "O=C(O)c1ccc(O)c(O)c1", "note": "[Compound 13, protocatechuic acid]", "values": [{"measurement": "IC50", "setting": "MCF-7 [1]; [10]", "result": "140 ± 4.95", "unit": "µg/mL"}]}
{"molecule": "O=C(O)C(O)Cc1ccc(O)c(O)c1", "note": "(centres unmarked) [Compound 12, 3-(3,4-dihydroxyphenyl) lactic acid]", "values": [{"measurement": "IC50", "setting": "MCF-7 [1]; [10]", "result": "140 ± 12", "unit": "µg/mL"}]}
{"molecule": "O=C(O[C@H](Cc1ccc(O)c(O)c1)C(=O)O)[C@H]1[C@H](C(=O)O[C@H](Cc2ccc(O)c(O)c2)C(=O)O)[C@H](c2ccc(O)c(O)c2)[C@H]1c1ccc(O)c(O)c1", "note": "[Compound 7, shimobashiric acid C]", "values": [{"measurement": "IC50 ± SD", "setting": "MCF-7 [1]; [10]", "result": "142 ± 3.54", "unit": "µg/mL"}]}
{"molecule": "O=C(O)/C=C/c1ccc(O[C@@H]2O[C@H](CO)[C@@H](O)[C@H](O)[C@H]2O)cc1", "note": "[Compound 11, (E)-p-coumaroyl 4-O-β-D-glucoside]", "values": [{"measurement": "IC50 ± SD", "setting": "MCF-7 [1]; [10]", "result": "139 ± 7.78", "unit": "µg/mL"}]}
